{"source": "patent US9499550B2", "about": "(BRISTOL-MYERS SQUIBB COMPANY, priority 2012, dated 2016)", "key": {"[1]": {"system": "HCV genotype 1a (H77 strain) replicon in HUH-7 cells", "experiment": "HCV replicon luciferase reporter assay, genotype 1a", "format": "cell-based", "settings": "Hepatitis C virus, Huh-7, 72 h, 3 days incubation", "method_in_brief": "(§1)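 Replicon inhibition for both genotypes was measured as Renilla luciferase signal (EnduRen, 7.5 μM final, 2 h) after 3-day, 37° C exposure of replicon-bearing HUH-7 cells in 4% FCS DMEM, 0.5% DMSO. The 1b construct carries S1179I; the 1a H77 construct carries P1496L and S2204I. Twenty-point, 3-fold dilutions were fitted four-parametrically for EC50, and CC50 was taken from multiplexed Cell Titer-Blue.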"}, "[2]": {"system": "HCV genotype 1b (Con1) replicon in HUH-7 cells", "experiment": "HCV replicon luciferase reporter assay, genotype 1b", "format": "cell-based", "settings": "Hepatitis C virus, Huh-7, 72 h, 3 days incubation", "method_in_brief": "as §1"}, "[3]": {"settings": "HCV genotype 1a replicon luciferase, read-out: LE_1a (EC50, range)"}, "[4]": {"settings": "HCV genotype 1b replicon luciferase, read-out: LE_1b (EC50, range)"}, "[5]": {"settings": "HCV genotype 1a replicon luciferase assay, range class, read-out: LE_1a (EC50, range)"}, "[6]": {"settings": "HCV genotype 1b replicon luciferase assay, range class, read-out: LE_1b (EC50, range)"}, "[7]": {"settings": "GETYPE1A, HCV genotype 1a replicon luciferase, read-out: LE_1a (EC50, range)"}, "[8]": {"settings": "GETYPE1B, HCV genotype 1b replicon luciferase, read-out: LE_1b (EC50, range)"}}, "note": "Read-outs that look alike come from different tables or passages of the source."}
{"compound": "COc1ccc2c(O[C@@H]3C[C@H]4C(=O)N[C@]5(C(=O)NS(=O)(=O)C6(C)CC6)C[C@H]5/C=C\\CC[C@H](C)C[C@@H](C)[C@H](NC(=O)OC(C)(C)C(F)(F)F)C(=O)N4C3)nc(-c3ccc(OC(C)C)nc3)cc2c1", "note": "[Compound 5224, 1,1,1-trifluoro-2-methylpropan-2-yl((2R,6S,7R,9S,13aS,14aR,16aS,Z)-2-((3-(6-isopropoxypyridin-3-yl)-6-methoxyisoquinolin-1-yl)oxy)-7,9-dimethyl-14a-(((1-methylcyclopropyl)sulfonyl)carbamoyl)-5,16-dioxo-1,2,3,5,6,7,8,9,10,11,13a,14,14a,15,16,16a-hexadecahydrocyclopropa[e]pyrrolo[1,2-a][1,4]diazacyclopentadecin-6-yl)carbamate]", "values": [{"measurement": "EC50", "setting": "[1]; [3]", "value": "4.82 to 103", "unit": "nM"}, {"measurement": "EC50", "setting": "[2]; [4]", "value": "4.82 to 103", "unit": "nM"}]}
{"compound": "COc1cc(F)cc2c(O[C@@H]3C[C@H]4C(=O)N[C@]5(C(=O)NS(=O)(=O)C6(CF)CC6)C[C@H]5/C=C\\CC[C@H](C)C[C@@H](C)[C@H](NC(=O)OC(C)(C)C(F)(F)F)C(=O)N4C3)nccc12", "note": "[Compound 3175, 1,1,1-trifluoro-2-methylpropan-2-yl((2R,6S,7R,9S,13aS,14aR,16aS,Z)-2-((7-fluoro-5-methoxyisoquinolin-1-yl)oxy)-14a-(((1-(fluoromethyl)cyclopropyl)sulfonyl)carbamoyl)-7,9-dimethyl-5,16-dioxo-1,2,3,5,6,7,8,9,10,11,13a,14,14a,15,16,16a-hexadecahydrocyclopropa[e]pyrrolo[1,2-a][1,4]diazacyclopentadecin-6-yl)carbamate]", "values": [{"measurement": "EC50", "setting": "[1]; [5]", "value": "4.82 to 103", "unit": "nM"}, {"measurement": "EC50", "setting": "[2]; [6]", "value": "4.82 to 103", "unit": "nM"}]}
{"compound": "C[C@@H]1CC/C=C\\[C@@H]2C[C@@]2(C(=O)NS(=O)(=O)C2(C)CC2)NC(=O)[C@@H]2C[C@@H](Oc3nccc4cc(OCC(=O)O)ccc34)CN2C(=O)[C@@H](NC(=O)OC(C)(C)C)[C@H](C)C1", "note": "[Compound 2003, 2-((1-(((2R,6S,7R,9R,13aS,14aR,16aS,Z)-6-((tert-butoxycarbonyl)amino)-7,9-dimethyl-14a-(((1-methylcyclopropyl)sulfonyl)carbamoyl)-5,16-dioxo-1,2,3,5,6,7,8,9,10,11,13a,14,14a,15,16,16a-hexadecahydrocyclopropa[e]pyrrolo[1,2-a][1,4]diazacyclopentadecin-2-yl)oxy)isoquinolin-6-yl)oxy)acetic acid]", "values": [{"measurement": "EC50", "setting": "[1]; [5]", "value": "> 87.4", "unit": "nM"}, {"measurement": "EC50", "setting": "[1]; HCV genotype 1a replicon luciferase assay, read-out: LE_1a (EC50)", "value": 330, "unit": "nM"}, {"measurement": "EC50", "setting": "[2]; [6]", "value": "> 87.4", "unit": "nM"}, {"measurement": "EC50", "setting": "[2]; HCV genotype 1b replicon luciferase assay, read-out: LE_1b (EC50)", "value": 158, "unit": "nM"}]}
{"compound": "COCCOc1cc2c(Cl)cccc2c(O[C@@H]2C[C@H]3C(=O)N[C@]4(C(=O)NS(=O)(=O)C5(C)CC5)C[C@H]4/C=C\\CC[C@@H](C)C[C@@H](C)[C@H](NC(=O)OC(C)(C)C)C(=O)N3C2)n1", "note": "[Compound 1118, tert-butyl ((2R,6S,7R,9R,13aS,14aR,16aS,Z)-2-((5-chloro-3-(2-methoxyethoxyl)isoquinolin-1-yl)oxy)-7,9-dimethyl-14a-(((1-methylcyclopropyl)sulfonyl)carbamoyl)-5,16-dioxo-1,2,3,5,6,7,8,9,10,11,13a,14,14a,15,16,16a-hexadecahydrocyclopropa[e]pyrrolo[1,2-a][1,4]diazacyclopentadecin-6-yl)carbamate]", "values": [{"measurement": "EC50", "setting": "[1]; [5]", "value": "< 5.46", "unit": "nM"}, {"measurement": "EC50", "setting": "[2]; [6]", "value": "< 5.46", "unit": "nM"}]}
{"compound": "COc1cnc(O[C@@H]2C[C@H]3C(=O)N[C@]4(C(=O)NS(=O)(=O)C5(CO)CC5)C[C@H]4/C=C\\CC[C@H](C)C[C@@H](C)[C@H](NC(=O)OC(C)(C)C(F)(F)F)C(=O)N3C2)c2ccccc12", "note": "[Compound 4111]", "values": [{"measurement": "EC50", "setting": "[1]; [7]", "value": "> 87.4", "unit": "nM"}, {"measurement": "EC50", "setting": "[2]; [8]", "value": "4.82 to 103", "unit": "nM"}]}
{"compound": "CCOc1ccc2ncc(O[C@@H]3C[C@H]4C(=O)N[C@]5(C(=O)NS(=O)(=O)C6(CF)CC6)C[C@H]5/C=C\\CC[C@@H](C)C[C@@H](C)[C@H](NC(=O)OC(C)(C)C(F)(F)F)C(=O)N4C3)cc2c1", "note": "[Compound 4296]", "values": [{"measurement": "EC50", "setting": "[1]; GETYPE1A, HCV genotype 1a replicon luciferase, read-out: LE_1a (EC50)", "value": 11.9, "unit": "nM"}, {"measurement": "EC50", "setting": "[1]; [7]", "value": "5.01 to 35", "unit": "nM"}, {"measurement": "EC50", "setting": "[2]; GETYPE1B, HCV genotype 1b replicon luciferase, read-out: LE_1b (EC50)", "value": 5.46, "unit": "nM"}, {"measurement": "EC50", "setting": "[2]; [8]", "value": "5.01 to 35", "unit": "nM"}]}
{"compound": "CCOc1ccc2nc(C(F)(F)F)c(O[C@@H]3C[C@H]4C(=O)N[C@]5(C(=O)NS(=O)(=O)C6(C)CC6)C[C@H]5/C=C\\CC[C@@H](C)C[C@@H](CC)[C@H](NC(=O)OC(C)(C)C)C(=O)N4C3)nc2c1", "note": "[Compound 4363, tert-butyl ((2R,6S,7R,9R,13aS,14aR,16aS,Z)-2-((7-ethoxy-3-(trifluoromethyl)quinoxalin-2-yl)oxy)-7-ethyl-9-methyl-14a-(((1-methylcyclopropyl)sulfonyl)carbamoyl)-5,16-dioxo-1,2,3,5,6,7,8,9,10,11,13a,14,14a,15,16,16a-hexadecahydrocyclopropa[e]pyrrolo[1,2-a][1,4]diazacyclopentadecin-6-yl)carbamate]", "values": [{"measurement": "EC50", "setting": "[1]; [3]", "value": "1.01 to 5", "unit": "nM"}, {"measurement": "EC50", "setting": "[2]; [4]", "value": "0.1 to 0.5", "unit": "nM"}]}
{"compound": "COc1ccc2c(O[C@@H]3C[C@H]4C(=O)N[C@]5(C(=O)NS(=O)(=O)C6(CF)CC6)C[C@H]5/C=C\\CC[C@H](C)C[C@@H](C)[C@H](NC(=O)OC5(C(F)(F)F)CCCOC5)C(=O)N4C3)nc(C(F)(F)F)cc2c1", "note": "(stereo partly drawn) [Compound 1172, 3-(trifluoromethyl)tetrahydro-2H-pyran-3-yl((2R,6S,7R,9S,13aS,14aR,16aS,Z)-14a-(((1-(fluoromethyl)cyclopropyl)sulfonyl)carbamoyl)-2-((6-methoxy-3-(trifluoromethyl)isoquinolin-1-yl)oxy)-7,9-dimethyl-5,16-dioxo-1,2,3,5,6,7,8,9,10,11,13a,14,14a,15,16,16a-hexadecahydrocyclopropa[e]pyrrolo[1,2-a][1,4]diazacyclopentadecin-6-yl)carbamate]", "values": [{"measurement": "EC50", "setting": "[1]; [5]", "value": "> 87.4", "unit": "nM"}, {"measurement": "EC50", "setting": "[2]; [6]", "value": "4.82 to 103", "unit": "nM"}]}
{"compound": "CCn1nc(O[C@@H]2C[C@H]3C(=O)N[C@]4(C(=O)NS(=O)(=O)C5CC5)C[C@H]4/C=C\\CC[C@H](C)C[C@@H](C)[C@H](NC(=O)NC(C)(C)C)C(=O)N3C2)c2ccccc2c1=O", "note": "[Compound 5071, (2R,6S,7R,9S,13aS,14aR,16aS,Z)-6-(3-(tert-butyl)ureido)-N-(cyclopropylsulfonyl)-2-((3-ethyl-4-oxo-3,4-dihydrophthalazin-1-yl)oxy)-7,9-dimethyl-5,16-dioxo-1,2,3,5,6,7,8,9,10,11,13a,14,14a,15,16,16a-hexadecahydrocyclopropa[e]pyrrolo[1,2-a][1,4]diazacyclopentadecine-14a-carboxamide]", "values": [{"measurement": "EC50", "setting": "[1]; HCV genotype 1a replicon luciferase, read-out: LE_1a (EC50)", "value": "≥ 1000", "unit": "nM"}, {"measurement": "EC50", "setting": "[1]; [3]", "value": "> 87.4", "unit": "nM"}, {"measurement": "EC50", "setting": "[2]; HCV genotype 1b replicon luciferase, read-out: LE_1b (EC50)", "value": 1000, "unit": "nM"}, {"measurement": "EC50", "setting": "[2]; [4]", "value": "> 87.4", "unit": "nM"}]}
{"compound": "COc1cnc(O[C@@H]2C[C@H]3C(=O)N[C@]4(C(=O)NS(=O)(=O)C5(CF)CC5)C[C@H]4/C=C\\CC[C@@H](C)C[C@@H](C)[C@H](NC(=O)OC(C)(C)C(C)(F)F)C(=O)N3C2)c2ccccc12", "note": "[Compound 1043, 3,3-difluoro-2-methylbutan-2-yl((2R,6S,7R,9R,13aS,14aR,16aS,Z)-14a-(((1-(fluoromethyl)cyclopropyl)sulfonyl)carbamoyl)-2-((4-methoxyisoquinolin-1-yl)oxy)-7,9-dimethyl-5,16-dioxo-1,2,3,5,6,7,8,9,10,11,13a,14,14a,15,16,16a-hexadecahydrocyclopropa[e]pyrrolo[1,2-a][1,4]diazacyclopentadecin-6-yl)carbamate]", "values": [{"measurement": "EC50", "setting": "[1]; [5]", "value": "< 5.46", "unit": "nM"}, {"measurement": "EC50", "setting": "[2]; [6]", "value": "< 5.46", "unit": "nM"}]}
{"compound": "CCOc1cnc(O[C@@H]2C[C@H]3C(=O)N[C@]4(C(=O)NS(=O)(=O)C5CC5)C[C@H]4/C=C\\CC[C@@H](C)C[C@@H](CC)[C@H](NC(=O)OC(C)(C)C(F)(F)F)C(=O)N3C2)c2ccc(OC)cc12", "note": "[Compound 4249]", "values": [{"measurement": "EC50", "setting": "[1]; [7]", "value": "1.01 to 5", "unit": "nM"}, {"measurement": "EC50", "setting": "[2]; [8]", "value": "0.51 to 1", "unit": "nM"}]}
{"compound": "CC[C@@H]1C[C@H](C)CC/C=C\\[C@@H]2C[C@@]2(C(=O)NS(=O)(=O)C2(C)CC2)NC(=O)[C@@H]2C[C@@H](Oc3ncc(N4CCOCC4)c4ccccc34)CN2C(=O)[C@H]1NC(=O)OC(C)(C)C(F)(F)F", "note": "[Compound 5419, 1,1,1-trifluoro-2-methylpropan-2-yl((2R,6S,7R,9R,13aS,14aR,16aS,Z)-7-ethyl-9-methyl-14a-(((1-methylcyclopropyl)sulfonyl)carbamoyl)-2-((4-morpholinoisoquinolin-1-yl)oxy)-5,16-dioxo-1,2,3,5,6,7,8,9,10,11,13a,14,14a,15,16,16a-hexadecahydrocyclopropa[e]pyrrolo[1,2-a][1,4]diazacyclopentadecin-6-yl)carbamate]", "values": [{"measurement": "EC50", "setting": "[1]; [3]", "value": "1.01 to 5", "unit": "nM"}, {"measurement": "EC50", "setting": "[2]; [4]", "value": "0.51 to 1", "unit": "nM"}]}
{"compound": "COc1nnc(O[C@@H]2C[C@H]3C(=O)N[C@]4(C(=O)NS(=O)(=O)C5(C)CC5)C[C@H]4/C=C\\CC[C@@H](C)C[C@@H](C)[C@H](NC(=O)OC(C)(C)C)C(=O)N3C2)c2ccccc12", "note": "[Compound 5016, tert-butyl ((2R,6S,7R,9R,13aS,14aR,16aS,Z)-2-((4-methoxyphthalazin-1-yl)oxy)-7,9-dimethyl-14a-(((1-methylcyclopropyl)sulfonyl)carbamoyl)-5,16-dioxo-1,2,3,5,6,7,8,9,10,11,13a,14,14a,15,16,16a-hexadecahydrocyclopropa[e]pyrrolo[1,2-a][1,4]diazacyclopentadecin-6-yl)carbamate]", "values": [{"measurement": "EC50", "setting": "[1]; [3]", "value": "< 5.46", "unit": "nM"}, {"measurement": "EC50", "setting": "[2]; [4]", "value": "< 5.46", "unit": "nM"}]}
